Measured values reported in patent US20150031068A1, “METHODS AND COMPOSITIONS FOR DETECTING IMMUNE SYSTEM ACTIVATION” (Lycera Corporation, priority 2012, published 2015).

How the values were obtained:
T cells [1] = assay: Molar percent enrichment of [4,5-^13C2]-L-glutamate in spleen T cells after ^13C-palmitate tracer load; type: in vivo, mouse
Text: The molar percent enrichment of [4,5-^13C2]-L-glutamate is the amount of [4,5-^13C2]-L-glutamate in a sample divided by the total amount of all ^13C-labeled glutamate isotopomers in the sample.

T cells [2] = assay: ^13C delta in CO2 in spleen T cells after ^13C-palmitate tracer load, acute graft-versus-host disease model; type: in vivo, mouse
Procedure: To investigate metabolic adaptations that occur in response to allo-activation, host strain animals (female B6D2F1 mice, H-2b/d) were injected with 50-75 million spleen cells from donor strain animals (female B6.SJL mice, H-2b). The miss-match between the strains major histocompatibility antigens (e.g., H-2b/d versus H-2b) causes T cell activation of donor T cells in vivo and results in a mouse model of acute graft versus host disease. Eight days after injection, transplanted mice along with control non-transplanted animals from the host and donor strains received with U-^13C(6)-glutamine (Sigma#60516, 1.0 g/kg I.P.) or U-^13C(5)-glucose (Sigma#660663, 1.0 g/kg I.P.) or potassium U-^13C(16)-palmitate (Sigma#687871, 1.0 g/kg, gastric gavage). Treatment groups of four mice each were euthanized 60 minutes after the glutamine or glucose tracer loads or 180 minutes after palmitate tracer load by over exposure to carbon dioxide. Terminal blood samples were collected by cardiac puncture, plasma prepared after blood was mixed with heparin and frozen at −80° C. Spleens were removed and processed to isolate T cells as separate fractions derived from either the donor or host strains of mice. Samples were stored on dry ice overnight and then stored at −80° C. until analyzed using GC/MS-based mass isotopomer analysis.

[3] = Plasma metabolite profile after ^13C-glutamine tracer load in mouse model of acute graft-versus-host disease; type: in vivo; details: for circulating total glutamine concentration in plasma, change: grafted host (allo-transplanted) mice compared to control donor and control host mice
Procedure: To investigate metabolic adaptations that occur in response to allo-activation, host strain animals (female B6D2F1 mice, H-2b/d) were injected with 50-75 million spleen cells from donor strain animals (female B6.SJL mice, H-2b). […] Eight days after injection, transplanted mice along with control non-transplanted animals from the host and donor strains received with U-^13C(6)-glutamine (Sigma#60516, 1.0 g/kg I.P.) or U-^13C(5)-glucose (Sigma#660663, 1.0 g/kg I.P.) or potassium U-^13C(16)-palmitate (Sigma#687871, 1.0 g/kg, gastric gavage). Treatment groups of four mice each were euthanized 60 minutes after the glutamine or glucose tracer loads or 180 minutes after palmitate tracer load by over exposure to carbon dioxide. Terminal blood samples were collected by cardiac puncture, plasma prepared after blood was mixed with heparin and frozen at −80° C. Spleens were removed and processed to isolate T cells as separate fractions derived from either the donor or host strains of mice. Samples were stored on dry ice overnight and then stored at −80° C. until analyzed using GC/MS-based mass isotopomer analysis.

SMILES	molar percent enrichment of [4,5-^13C2]-L-glutamate (T cells [1]; allo-activated donor T cells versus control naive T cells, FIG. 6)	molar percent enrichment of [4,5-^13C2]-L-glutamate (T cells [1]; host T cells from allo-transplanted mouse versus T cells from healthy host control, FIG. 7)	^13C delta in CO2 (T cells [2]; allo-activated donor type T cells versus control naive donor type T cells, FIG. 4B)	^13C delta in CO2 (T cells [2]; host T cells from allo-transplanted mouse versus host-type T cells from healthy host control, FIG. 5B)	circulating total glutamine concentration in plasma, change [3]	circulating total glutamine concentration in plasma, change ([3]; listed as glutamine)	share of ^13C-labeled glutamine fraction still uniformly ^13C-labeled ([3]; grafted host animals, plasma, one hour after glutamine tracer load) [%]
[13CH3][13CH2][13CH2][13CH2][13CH2][13CH2][13CH2][13CH2][13CH2][13CH2][13CH2][13CH2][13CH2][13CH2][13CH2][13C](=O)[O-].[K+] [uniformly labeled ^13C-palmitate, potassium U-^13C(16)-palmitate]	over six times greater	no statistically significant difference	higher	no statistically significant difference			
NC(=O)CCC(N)C(=O)O [[U-^13C5]-L-glutamine]					more than two-fold drop	reduction	83.4
